Results: ChEMBL document CHEMBL5360558, “Molecular design, synthesis and anticancer activity of new thiopyrano[2,3-d]thiazoles based on 5-hydroxy-1,4-naphthoquinone (juglone)” (Eur J Med Chem, 2023)

Legend:
HCT-116 = experiment: Cytotoxicity against human HCT-116 cells assessed as cell growth inhibition incubated for 72 hrs by MTT assay; format: functional, cell-based; conditions: HCT-116, 72 h
K562 = experiment: Cytotoxicity against human K562 cells assessed as cell growth inhibition incubated for 72 hrs by MTT assay; format: functional, cell-based; conditions: K562, 72 h
[1] = Cytotoxicity against human HCT116-p53-null cells assessed as cell growth inhibition incubated for 72 hrs by MTT assay; format: functional, cell-based
[2] = Cytotoxicity against mouse NIH3T3 cells assessed as cell growth inhibition incubated for 72 hrs by MTT assay; format: toxicity, cell-based
[3] = (§1) Cytotoxicity against human HaCaT cells assessed as cell growth inhibition incubated for 72 hrs by MTT assay; format: toxicity, cell-based; conditions: HaCaT cells
MCF7 = experiment: Cytotoxicity against human MCF7 cells assessed as cell growth inhibition incubated for 72 hrs by MTT assay; format: functional, cell-based; conditions: MCF7, 72 h
Salmon testes DNA = experiment: Displacement of methyl green from salmon sperm DNA assessed as DNA intercalation at 10 uM incubated for 24 hrs by fluorescence plate reader method relative to control; format: nucleic-acid assay; conditions: Salmo salar
[4] = Cytotoxicity against mouse J774.2 cells assessed as cell growth inhibition incubated for 72 hrs by MTT assay; format: toxicity, cell-based
KB 3-1 = experiment: Cytotoxicity against human KB 3-1 cells assessed as cell growth inhibition incubated for 72 hrs by MTT assay; format: functional, cell-based; conditions: KB 3-1, 72 h
HaCaT = experiment: as §1; format: toxicity, cell-based; conditions: hacat, 72 h
SNB-75 = experiment: Anticancer activity against human SNB-75 cells assessed as cell growth at 10 uM incubated for 48 hrs by sulforhodamine B assay; format: functional; conditions: read-out: Activity
[5] = Acute toxicity in C57BL/6 mouse assessed as decrease in body mass at 20 mg/kg,ip administration observed after 6 days; format: organism-based; conditions: in vivo, 144 h, time 6 day
A498 = experiment: Anticancer activity against human A498 cells assessed as cell growth at 10 uM incubated for 48 hrs by sulforhodamine B assay; format: functional; conditions: read-out: Activity
COLO 205 = experiment: Anticancer activity against human COLO 205 cells assessed as cell growth at 10 uM incubated for 48 hrs by sulforhodamine B assay; format: functional; conditions: read-out: Activity
[6] = Acute toxicity in C57BL/6 mouse assessed as animal death at 20 mg/kg,ip administration observed after 8 days; format: organism-based; conditions: in vivo, 192 h, time 8 day
SK-MEL-2 = experiment: Anticancer activity against human SK-MEL-2 cells assessed as cell growth at 10 uM incubated for 48 hrs by sulforhodamine B assay; format: functional; conditions: read-out: Activity
M14 = experiment: Anticancer activity against human M14 cells assessed as cell growth at 10 uM incubated for 48 hrs by sulforhodamine B assay; format: functional; conditions: read-out: Activity
[7] = Acute toxicity in C57BL/6 mouse assessed as neutrophil count at 20 mg/kg,ip administration and observed after 22 days; format: organism-based; conditions: in vivo, 528 h, time 22 day
[8] = Acute toxicity in C57BL/6 mouse assessed as animal death at 20 mg/kg,ip administration observed after 13 days; format: organism-based; conditions: in vivo, 312 h, time 13 day
[9] = Antileukemic activity against human CLL cell assessed as cell growth inhibition incubated for 72 hrs during remission period by MTT assay; format: functional, cell-based
[10] = Cytotoxicity against human Lymphocyte cells assessed as cell growth inhibition incubated for 72 hrs by MTT assay; format: toxicity, cell-based; conditions: lymphocytes
[11] = Acute toxicity in C57BL/6 mouse assessed as leukopenia at 20 mg/kg,ip administration observed after 22 days; format: organism-based; conditions: in vivo, 528 h, time 22 day
[12] = Acute toxicity in C57BL/6 mouse assessed as anemia at 20 mg/kg,ip administration observed after 22 days; format: organism-based; conditions: in vivo, 528 h, time 22 day
SK-MEL-5 = experiment: Anticancer activity against human SK-MEL-5 cells assessed as cell growth at 10 uM incubated for 48 hrs by sulforhodamine B assay; format: functional; conditions: read-out: Activity
[13] = Acute toxicity in C57BL/6 mouse assessed as decrease in body mass at 6.6 mg/kg,ip administration; format: organism-based; conditions: in vivo
[14] = Acute toxicity in C57BL/6 mouse assessed as lymphocyte count at 20 mg/kg,ip administration and observed after 22 days; format: organism-based; conditions: in vivo, 528 h, time 22 day
MDA-MB-435 = experiment: Anticancer activity against human MDA-MB-435 cells assessed as cell growth at 10 uM incubated for 48 hrs by sulforhodamine B assay; format: functional; conditions: read-out: Activity
[15] = Antileukemic activity against human CLL cell assessed as cell growth inhibition incubated for 72 hrs by MTT assay; format: functional, cell-based
[16] = Antileukemic activity against human CLL cell assessed as cell growth inhibition incubated for 72 hrs in presence of BST by MTT assay; format: functional, cell-based

Structure (SMILES) | IC50 (HCT-116) [µM] | IC50 (K562) [µM] | IC50 [1] [µM] | IC50 at 72 h [2] [µM] | IC50 at 72 h [3] [µM] | IC50 (MCF7) [µM] | Activity (Salmon testes DNA) [%] | IC50 at 72 h [4] [µM] | IC50 (KB 3-1) [µM] | further results
CN(C)c1ccc(C2C3=C(Sc4[nH]c(=O)sc42)C(=O)c2cccc(O)c2C3=O)cc1 (stereo not drawn) | 6.15 | 22.9 | 8.83 | > 50 | > 50 | > 50 | 55.4 | 26.9 | 7.21 | –
O=C1C2=C(C(=O)c3c(O)cccc31)C(/C=C/c1ccccc1)c1sc(=O)[nH]c1S2 (stereo not drawn) | 35.6 | 28.4 | 43.7 | – | – | 7.41 | 11.8 | 7.44 | 46.4 | –
C/C(=C\c1ccccc1)C1C2=C(Sc3[nH]c(=O)sc31)C(=O)c1cccc(O)c1C2=O (stereo not drawn) | 40.6 | 33 | 41.7 | – | – | > 50 | 29.5 | 30.8 | 47.5 | –
COc1ccc(C2C3=C(Sc4[nH]c(=O)sc42)C(=O)c2cccc(O)c2C3=O)cc1 (stereo not drawn) | 3.19 | 5.66 | 3.26 | 6.78 | 40.8 | 6.1 | 29.5 | 2.95 | 0.87 | –
O=C1C2=C(C(=O)c3c(O)cccc31)C(/C=C/c1ccccc1[N+](=O)[O-])c1sc(=O)[nH]c1S2 (stereo not drawn) | 0.94 | 15.7 | 2.16 | – | – | 0.95 | 53.2 | 0.83 | 6.94 | –
CC1(C)C2=C(Sc3[nH]c(=O)sc31)C(=O)c1cccc(O)c1C2=O | 12.9 | 26.8 | 36.2 | > 50 | > 50 | 9.48 | 42.5 | 26.4 | 23.4 | –
O=C1C2=C(C(=O)c3ccccc31)C(c1ccco1)c1sc(=O)[nH]c1S2 (stereo not drawn) | 5.44 | 30.9 | 6.28 | 38.9 | – | 29 | 11.8 | 6.77 | 5.54 | Activity (HaCaT): Non-Toxic
COc1cccc2c1C(=O)c1c(O)c3c(c(O)c1C2=O)C[C@@](O)(C(=O)CO)C[C@@H]3O[C@H]1C[C@H](N)[C@H](O)[C@H](C)O1 [DOXORUBICIN] | 0.58 | 0.59 | 0.63 | 0.72 | 4.56 | – | – | 0.56 | 0.56 | growth at 10 µM (SNB-75): -76.1%; Activity [5]: Toxic; growth at 10 µM (A498): -75.1%; growth at 10 µM (COLO 205): -81.6%; Activity [6]: Toxic; growth at 10 µM (SK-MEL-2): -82.6%; growth at 10 µM (M14): -71.6%; Activity [7]: 45.05%; Activity [8]: Toxic; IC50 [9]: 7.33 µM; IC50 at 72 h [10]: 10 µM; Activity [11]: Toxic; Activity [12]: Toxic; growth at 10 µM (SK-MEL-5): -86.4%; Activity [13]: Toxic; Activity [14]: 50.35%; growth at 10 µM (MDA-MB-435): -82.6%; IC50 [15]: > 10 µM; IC50 [16]: 8.6 µM
